Converted amounts (≈) assume the structure as drawn.
Columns and labels:
Prevotella buccae [1] = assay: Antibacterial activity against Prevotella buccae by CLSI agar dilution method; format: functional; settings: Segatella buccae
Fusobacterium varium [2] = assay: Antibacterial activity against Fusobacterium varium assessed as resistant isolates by CLSI agar dilution method; format: functional
Bacteroides uniformis [3] = assay: Antibacterial activity against beta-lactamase producing Bacteroides uniformis assessed as resistant isolates by CLSI agar dilution method; format: functional
[4] = tested on: Peptostreptococcus anaerobius; assay: Antibacterial activity against beta-lactamase producing Peptostreptococcus anaerobius assessed as susceptible isolates by CLSI agar dilution method; format: functional
Clostridium septicum [5] = assay: Antibacterial activity against beta-lactamase producing Clostridium septicum assessed as susceptible isolates by CLSI agar dilution method; format: functional
Prevotella bivia [6] = assay: Antibacterial activity against Prevotella bivia assessed as susceptible isolates by CLSI agar dilution method; format: functional
Veillonella parvula = assay: Antibacterial activity against Veillonella parvula by CLSI agar dilution method; format: functional
[7] = tested on: Prevotella melaninogenica; assay: Antibacterial activity against Prevotella melaninogenica assessed as susceptible isolates by CLSI agar dilution method; format: functional
Bacteroides fragilis [8] = assay: Antibacterial activity against Bacteroides fragilis assessed as resistant isolates by CLSI agar dilution method; format: functional
[9] = tested on: Bacteroides thetaiotaomicron; assay: Antibacterial activity against beta-lactamase producing Bacteroides thetaiotaomicron by CLSI agar dilution method; format: functional
Finegoldia magna [10] = assay: Antibacterial activity against beta-lactamase producing Finegoldia magna by CLSI agar dilution method; format: functional
[11] = tested on: Fusobacterium necrophorum; assay: Antibacterial activity against Fusobacterium necrophorum assessed as resistant isolates by CLSI agar dilution method; format: functional
Parvimonas micra [12] = assay: Antibacterial activity against beta-lactamase producing Micromonas micros assessed as resistant isolates by CLSI agar dilution method; format: functional
Fusobacterium mortiferum [13] = assay: Antibacterial activity against Fusobacterium mortiferum by CLSI agar dilution method; format: functional
Bacteroides caccae [14] = assay: Antibacterial activity against beta-lactamase producing Bacteroides caccae by CLSI agar dilution method; format: functional
[15] = tested on: Peptoniphilus asaccharolyticus; assay: Antibacterial activity against beta-lactamase producing Peptoniphilus asaccharolyticus assessed as resistant isolates by CLSI agar dilution method; format: functional
[16] = tested on: Peptostreptococcus anaerobius; assay: Antibacterial activity against beta-lactamase producing Peptostreptococcus anaerobius assessed as resistant isolates by CLSI agar dilution method; format: functional
Prevotella intermedia [17] = assay: Antibacterial activity against Prevotella intermedia assessed as susceptible isolates by CLSI agar dilution method; format: functional
[18] = tested on: Clostridium paraputrificum; assay: Antibacterial activity against beta-lactamase producing Clostridium paraputrificum assessed as resistant isolates by CLSI agar dilution method; format: functional
Clostridium tertium [19] = assay: Antibacterial activity against beta-lactamase producing Clostridium tertium assessed as susceptible isolates by CLSI agar dilution method; format: functional
Bacteroides uniformis [20] = assay: Antibacterial activity against beta-lactamase producing Bacteroides uniformis by CLSI agar dilution method; format: functional
[21] = tested on: Prevotella melaninogenica; assay: Antibacterial activity against Prevotella melaninogenica by CLSI agar dilution method; format: functional
Clostridium septicum [22] = assay: Antibacterial activity against beta-lactamase producing Clostridium septicum assessed as resistant isolates by CLSI agar dilution method; format: functional
[23] = tested on: Clostridium paraputrificum; assay: Antibacterial activity against beta-lactamase producing Clostridium paraputrificum assessed as susceptible isolates by CLSI agar dilution method; format: functional
Bacteroides caccae [24] = assay: Antibacterial activity against beta-lactamase producing Bacteroides caccae assessed as susceptible isolates by CLSI agar dilution method; format: functional
Clostridium tertium [25] = assay: Antibacterial activity against beta-lactamase producing Clostridium tertium by CLSI agar dilution method; format: functional
Prevotella bivia [26] = assay: Antibacterial activity against Prevotella bivia by CLSI agar dilution method; format: functional
Fusobacterium mortiferum [27] = assay: Antibacterial activity against Fusobacterium mortiferum assessed as resistant isolates by CLSI agar dilution method; format: functional
[28] = tested on: Peptoniphilus asaccharolyticus; assay: Antibacterial activity against beta-lactamase producing Peptoniphilus asaccharolyticus assessed as susceptible isolates by CLSI agar dilution method; format: functional
Finegoldia magna [29] = assay: Antibacterial activity against beta-lactamase producing Finegoldia magna assessed as resistant isolates by CLSI agar dilution method; format: functional
Prevotella bivia [30] = assay: Antibacterial activity against Prevotella bivia assessed as resistant isolates by CLSI agar dilution method; format: functional
Bacteroides fragilis [31] = assay: Antibacterial activity against Bacteroides fragilis assessed as susceptible isolates by CLSI agar dilution method; format: functional
Fusobacterium nucleatum [32] = assay: Antibacterial activity against Fusobacterium nucleatum assessed as resistant isolates by CLSI agar dilution method; format: functional
Fusobacterium varium [33] = assay: Antibacterial activity against Fusobacterium varium by CLSI agar dilution method; format: functional
[34] = tested on: Fusobacterium necrophorum; assay: Antibacterial activity against Fusobacterium necrophorum assessed as susceptible isolates by CLSI agar dilution method; format: functional
Prevotella buccae [35] = assay: Antibacterial activity against Prevotella buccae assessed as resistant isolates by CLSI agar dilution method; format: functional, Segatella buccae
Parvimonas micra [36] = assay: Antibacterial activity against beta-lactamase producing Micromonas micros by CLSI agar dilution method; format: functional
Phocaeicola vulgatus [37] = assay: Antibacterial activity against beta-lactamase producing Bacteroides vulgatus assessed as susceptible isolates by CLSI agar dilution method; format: functional
[38] = tested on: Peptostreptococcus anaerobius; assay: Antibacterial activity against beta-lactamase producing Peptostreptococcus anaerobius by CLSI agar dilution method; format: functional
[39] = tested on: Peptoniphilus asaccharolyticus; assay: Antibacterial activity against beta-lactamase producing Peptoniphilus asaccharolyticus by CLSI agar dilution method; format: functional
Phocaeicola vulgatus [40] = assay: Antibacterial activity against beta-lactamase producing Bacteroides vulgatus by CLSI agar dilution method; format: functional
[41] = tested on: Bacteroides thetaiotaomicron; assay: Antibacterial activity against beta-lactamase producing Bacteroides thetaiotaomicron assessed as resistant isolates by CLSI agar dilution method; format: functional
Phocaeicola vulgatus [42] = assay: Antibacterial activity against beta-lactamase producing Bacteroides vulgatus assessed as resistant isolates by CLSI agar dilution method; format: functional
Prevotella intermedia [43] = assay: Antibacterial activity against Prevotella intermedia by CLSI agar dilution method; format: functional
Clostridium perfringens = assay: microbe, parasite or virus in culture; format: functional
[44] = tested on: Prevotella melaninogenica; assay: Antibacterial activity against Prevotella melaninogenica assessed as resistant isolates by CLSI agar dilution method; format: functional
Clostridium tertium [45] = assay: Antibacterial activity against beta-lactamase producing Clostridium tertium assessed as resistant isolates by CLSI agar dilution method; format: functional
Fusobacterium mortiferum [46] = assay: Antibacterial activity against Fusobacterium mortiferum assessed as susceptible isolates by CLSI agar dilution method; format: functional
Bacteroides fragilis [47] = assay: Antibacterial activity against Bacteroides fragilis by CLSI agar dilution method; format: functional
[48] = tested on: Clostridium paraputrificum; assay: Antibacterial activity against beta-lactamase producing Clostridium paraputrificum by CLSI agar dilution method; format: functional
Fusobacterium nucleatum [49] = assay: Antibacterial activity against Fusobacterium nucleatum by CLSI agar dilution method; format: functional
Bacteroides caccae [50] = assay: Antibacterial activity against beta-lactamase producing Bacteroides caccae assessed as resistant isolates by CLSI agar dilution method; format: functional
Parvimonas micra [51] = assay: Antibacterial activity against beta-lactamase producing Micromonas micros assessed as susceptible isolates by CLSI agar dilution method; format: functional
Clostridium septicum [52] = assay: Antibacterial activity against beta-lactamase producing Clostridium septicum by CLSI agar dilution method; format: functional
Finegoldia magna [53] = assay: Antibacterial activity against beta-lactamase producing Finegoldia magna assessed as susceptible isolates by CLSI agar dilution method; format: functional
[54] = tested on: Fusobacterium necrophorum; assay: Antibacterial activity against Fusobacterium necrophorum by CLSI agar dilution method; format: functional
Fusobacterium nucleatum [55] = assay: Antibacterial activity against Fusobacterium nucleatum assessed as susceptible isolates by CLSI agar dilution method; format: functional
[56] = tested on: Bacteroides thetaiotaomicron; assay: Antibacterial activity against beta-lactamase producing Bacteroides thetaiotaomicron assessed as susceptible isolates by CLSI agar dilution method; format: functional
Bacteroides uniformis [57] = assay: Antibacterial activity against beta-lactamase producing Bacteroides uniformis assessed as susceptible isolates by CLSI agar dilution method; format: functional
Prevotella buccae [58] = assay: Antibacterial activity against Prevotella buccae assessed as susceptible isolates by CLSI agar dilution method; format: functional, Segatella buccae
Fusobacterium varium [59] = assay: Antibacterial activity against Fusobacterium varium assessed as susceptible isolates by CLSI agar dilution method; format: functional
Prevotella intermedia [60] = assay: Antibacterial activity against Prevotella intermedia assessed as resistant isolates by CLSI agar dilution method; format: functional

CO[C@@]1(NC(=O)CSCC#N)C(=O)N2C(C(=O)O)=C(CSc3nnnn3C)CS[C@@H]21 [CEFMETAZOLE]
MIC50 (Prevotella buccae [1]): 2 µg/mL (≈ 4.24 µM)
MIC90 (Prevotella buccae [1]): 8 µg/mL (≈ 17 µM)
Activity (Fusobacterium varium [2]): 0%
Activity (Bacteroides uniformis [3]): 30%
Activity [4]: 97%
Activity (Clostridium septicum [5]): 89%
Activity (Prevotella bivia [6]): 94%
MIC (Veillonella parvula): > 0.25 µg/mL
Activity [7]: 94%
Activity (Bacteroides fragilis [8]): 13%
MIC50 [9]: 32 µg/mL (≈ 67.9 µM)
MIC90 [9]: 64 µg/mL (≈ 136 µM)
MIC50 (Finegoldia magna [10]): 0.5 µg/mL (≈ 1.06 µM)
MIC90 (Finegoldia magna [10]): 8 µg/mL (≈ 17 µM)
Activity [11]: 0%
Activity (Parvimonas micra [12]): 0%
MIC50 (Fusobacterium mortiferum [13]): 1 µg/mL (≈ 2.12 µM)
MIC90 (Fusobacterium mortiferum [13]): 2 µg/mL (≈ 4.24 µM)
MIC50 (Bacteroides caccae [14]): 32 µg/mL (≈ 67.9 µM)
MIC90 (Bacteroides caccae [14]): 128 µg/mL (≈ 271 µM)
Activity [15]: 0%
Activity [16]: 0%
Activity (Prevotella intermedia [17]): 94%
Activity [18]: 0%
Activity (Clostridium tertium [19]): 89%
MIC50 (Bacteroides uniformis [20]): 32 µg/mL (≈ 67.9 µM)
MIC90 (Bacteroides uniformis [20]): 128 µg/mL (≈ 271 µM)
MIC50 [21]: 2 µg/mL (≈ 4.24 µM)
MIC90 [21]: 8 µg/mL (≈ 17 µM)
Activity (Clostridium septicum [22]): 0%
Activity [23]: 89%
Activity (Bacteroides caccae [24]): 44%
MIC50 (Clostridium tertium [25]): 1 µg/mL (≈ 2.12 µM)
MIC90 (Clostridium tertium [25]): 16 µg/mL (≈ 33.9 µM)
MIC50 (Prevotella bivia [26]): 2 µg/mL (≈ 4.24 µM)
MIC90 (Prevotella bivia [26]): 8 µg/mL (≈ 17 µM)
Activity (Fusobacterium mortiferum [27]): 0%
Activity [28]: 97%
Activity (Finegoldia magna [29]): 0%
Activity (Prevotella bivia [30]): 6%
Activity (Bacteroides fragilis [31]): 72%
Activity (Fusobacterium nucleatum [32]): 0%
MIC50 (Fusobacterium varium [33]): 1 µg/mL (≈ 2.12 µM)
MIC90 (Fusobacterium varium [33]): 2 µg/mL (≈ 4.24 µM)
Activity [34]: 100%
Activity (Prevotella buccae [35]): 6%
MIC50 (Parvimonas micra [36]): 0.5 µg/mL (≈ 1.06 µM)
MIC90 (Parvimonas micra [36]): 8 µg/mL (≈ 17 µM)
Activity (Phocaeicola vulgatus [37]): 44%
MIC50 [38]: 0.5 µg/mL (≈ 1.06 µM)
MIC90 [38]: 8 µg/mL (≈ 17 µM)
MIC50 [39]: 0.5 µg/mL (≈ 1.06 µM)
MIC90 [39]: 8 µg/mL (≈ 17 µM)
MIC50 (Phocaeicola vulgatus [40]): 32 µg/mL (≈ 67.9 µM)
MIC90 (Phocaeicola vulgatus [40]): 128 µg/mL (≈ 271 µM)
Activity [41]: 17%
Activity (Phocaeicola vulgatus [42]): 30%
MIC50 (Prevotella intermedia [43]): 2 µg/mL (≈ 4.24 µM)
MIC90 (Prevotella intermedia [43]): 8 µg/mL (≈ 17 µM)
MIC50 (Clostridium perfringens): 1 µg/mL (≈ 2.12 µM)
MIC90 (Clostridium perfringens): 16 µg/mL (≈ 33.9 µM)
Activity [44]: 6%
Activity (Clostridium tertium [45]): 0%
Activity (Fusobacterium mortiferum [46]): 100%
MIC50 (Bacteroides fragilis [47]): 16 µg/mL (≈ 33.9 µM)
MIC90 (Bacteroides fragilis [47]): 64 µg/mL (≈ 136 µM)
MIC50 [48]: 1 µg/mL (≈ 2.12 µM)
MIC90 [48]: 16 µg/mL (≈ 33.9 µM)
MIC50 (Fusobacterium nucleatum [49]): 1 µg/mL (≈ 2.12 µM)
MIC90 (Fusobacterium nucleatum [49]): 2 µg/mL (≈ 4.24 µM)
Activity (Bacteroides caccae [50]): 30%
Activity (Parvimonas micra [51]): 97%
MIC50 (Clostridium septicum [52]): 1 µg/mL (≈ 2.12 µM)
MIC90 (Clostridium septicum [52]): 16 µg/mL (≈ 33.9 µM)
Activity (Finegoldia magna [53]): 97%
MIC50 [54]: 1 µg/mL (≈ 2.12 µM)
MIC90 [54]: 2 µg/mL (≈ 4.24 µM)
Activity (Fusobacterium nucleatum [55]): 100%
Activity [56]: 20%
Activity (Bacteroides uniformis [57]): 44%
Activity (Prevotella buccae [58]): 94%
Activity (Fusobacterium varium [59]): 100%
Activity (Prevotella intermedia [60]): 6%

— ChEMBL document CHEMBL1671627, “Increasing trends in antimicrobial resistance among clinically important anaerobes and Bacteroides fragilis isolates causing nosocomial infections: emerging resistance to carbapenems” (2008)
